Assay results: PMC6013247, “Preclinical characterization of INCB053914, a novel pan-PIM kinase inhibitor, alone and in combination with anticancer agents, in models of hematologic malignancies” (PLoS ONE, 2018)

Experiments:
[1] = test system: phosphorylation of BAD in MOLM-16 cells; experiment: pBAD S112 ELISA in cells; assay type: cell-based; settings: Homo sapiens, MOLM16, 2.5 hours, RPMI + 10% FBS, read-out: mean (± SD) IC50, pBAD inhibition
Description: (§1) The effect of INCB053914 on the level of pBAD was further investigated in KMS-12-BM and MOLM-16 cells, which were suspended in RPMI + 10% fetal bovine serum (FBS) and seeded into 96-well v-bottom polypropylene plates (Greiner, Munroe, North Carolina; 4 × 10^5 cells/well/100 μl) in the presence of 5 μl INCB053914 at a final concentration range of 0.1 nM to 1,000 nM. After 2.5 hours at 37°C and 5% CO2, the cells were lysed in 100 μl of cell extraction buffer (Cell Signaling Technology) containing phenylmethane sulfonyl fluoride, Halt^TM phosphatase, and protease inhibitors (Thermo Fisher Scientific, Waltham, Massachusetts; Calbiochem). The concentration of pBAD protein in the cell lysates was quantified using a Human pBAD S112 ELISA Kit (Cell Signaling Technology).

[2] = test system: phosphorylation of BAD in KMS-12-BM cells; experiment: pBAD S112 ELISA in cells; assay type: cell-based; settings: Homo sapiens, 2.5 hours, RPMI + 10% FBS, read-out: mean (± SD) IC50, pBAD inhibition
Description: as §1

SGK3 = SGK3 (Homo sapiens, UniProt Q96BR1); experiment: Kinase selectivity panel; assay type: biochemical; settings: [ATP] = 1 mM
[3] = test system: PIM2 expression and 4E-BP1 phosphorylation in whole blood samples; experiment: Pharmacodynamic assessment of blood samples from patients with AML in the phase 1/2 trial; assay type: in vivo, human; settings: patients with AML receiving INCB053914 100 mg twice a day; blood 0 to 6 hours post-dose
CDK2 = CDK2 (Homo sapiens, UniProt P24941); experiment: Kinase selectivity panel; assay type: biochemical; settings: [ATP] = 1 mM
NLK = NLK (Homo sapiens, UniProt Q9UBE8); experiment: Kinase selectivity panel; assay type: biochemical; settings: [ATP] = 1 mM
[4] = test system: panel of more than 50 kinases; settings: except for RSK2
Description: S1 Table. Selectivity of INCB053914 for PIM kinases compared with 56 kinases representative of the kinome [ATP] = 1 mM.

WSU-NHL = experiment: Cell proliferation assay ([3H]-thymidine); assay type: cell-based; settings: WSU-NHL (DLBCL)
Description: (§2) The antiproliferative effects of INCB053914 on hematologic tumor cells were investigated using assays described in the Supporting Information (S2 File).
(§3) Cell proliferation assays. […] After 3 to 4 days, [^3H]-thymidine (1 μCi/well) (PerkinElmer) in PBS (10 μl) was added to the cell culture for an additional 12 hours. The incorporated radioactivity was separated by filtration with water through GF/B filters (Packard Bioscience, Meriden, Connecticut) and measured by liquid scintillation counting with a TopCount (Packard Bioscience).

MV-411 = experiment: Cell proliferation assay ([3H]-thymidine); assay type: cell-based; settings: MV-411 (AML)
Description: as §2, §3

MOLP-8 = experiment: Cell proliferation assay ([3H]-thymidine); assay type: cell-based; settings: MOLP-8 (MM)
Description: as §2, §3

Kasumi-3 = experiment: Cell proliferation assay ([3H]-thymidine); assay type: cell-based; settings: Kasumi-3 (AML)
Description: as §2, §3

JM-1 = experiment: Cell proliferation assay ([3H]-thymidine); assay type: cell-based; settings: JM-1 (T-ALL)
Description: as §2, §3

JVM2 = experiment: Cell proliferation assay ([3H]-thymidine); assay type: cell-based; settings: JVM2 (MCL)
Description: as §2, §3

OPM-2 = experiment: Cell proliferation assay ([3H]-thymidine); assay type: cell-based; settings: OPM-2 (MM)
Description: as §2, §3

OCI-LY-10 = experiment: Cell proliferation assay ([3H]-thymidine); assay type: cell-based; settings: OCI-LY-10 (DLBCL)
Description: as §2, §3

KARPASS-422 = experiment: Cell proliferation assay ([3H]-thymidine); assay type: cell-based; settings: read-out: Mean (± SD) GI50
Description: as §2, §3

PL-21 = experiment: Cell proliferation assay ([3H]-thymidine); assay type: cell-based; settings: PL-21 (AML); read-out: Mean (± SD) GI50
Description: as §2, §3

CCRF-CEM = experiment: Cell proliferation assay ([3H]-thymidine); assay type: cell-based; settings: Homo sapiens; CCRF-CEM (T-ALL); read-out: Mean (± SD) GI50
Description: as §2, §3

RPMI-6666 = experiment: Cell proliferation assay ([3H]-thymidine); assay type: cell-based; settings: Homo sapiens; RPMI-6666 (HL); read-out: Mean (± SD) GI50
Description: as §2, §3

Pfeiffer = experiment: Cell proliferation assay ([3H]-thymidine); assay type: cell-based; settings: Pfeiffer (DLBCL)
Description: as §2, §3

EOL = experiment: Cell proliferation assay ([3H]-thymidine); assay type: cell-based; settings: EOL (AML)
Description: as §2, §3

MOLM-13 = experiment: Cell proliferation assay ([3H]-thymidine); assay type: cell-based; settings: Homo sapiens; MOLM-13 (AML); read-out: Mean (± SD) GI50
Description: as §2, §3

L363 = experiment: Cell proliferation assay ([3H]-thymidine); assay type: cell-based; settings: L363 (MM)
Description: as §2, §3

KG-1 = experiment: Cell proliferation assay ([3H]-thymidine); assay type: cell-based, human; settings: KG-1 (AML)
Description: as §2, §3

MOLM-16 = experiment: Cell proliferation assay ([3H]-thymidine); assay type: cell-based, human; settings: MOLM-16 (AML)
Description: as §2, §3

AURKA = AURKA (Homo sapiens, UniProt O14965); experiment: Kinase selectivity panel; assay type: biochemical; settings: [ATP] = 1 mM
[5] = Homo sapiens, read-out: Mean (± SD) GI50

Sequence of NLK (Q9UBE8 whole entry): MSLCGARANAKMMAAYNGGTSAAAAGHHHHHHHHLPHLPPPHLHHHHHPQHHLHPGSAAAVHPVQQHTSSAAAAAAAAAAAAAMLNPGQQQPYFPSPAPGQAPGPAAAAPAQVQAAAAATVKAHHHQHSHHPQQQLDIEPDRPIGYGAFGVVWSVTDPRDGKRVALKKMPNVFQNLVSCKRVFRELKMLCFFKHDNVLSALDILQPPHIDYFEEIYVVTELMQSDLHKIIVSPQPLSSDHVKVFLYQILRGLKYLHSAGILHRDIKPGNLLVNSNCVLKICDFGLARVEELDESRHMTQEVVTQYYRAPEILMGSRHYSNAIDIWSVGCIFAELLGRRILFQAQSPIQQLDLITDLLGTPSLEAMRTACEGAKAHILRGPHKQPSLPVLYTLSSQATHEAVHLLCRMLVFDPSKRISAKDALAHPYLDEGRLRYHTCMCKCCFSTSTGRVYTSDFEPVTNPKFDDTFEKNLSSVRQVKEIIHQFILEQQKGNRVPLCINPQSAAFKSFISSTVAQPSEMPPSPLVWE
Sequence of SGK3 (Q96BR1 whole entry, species assumed): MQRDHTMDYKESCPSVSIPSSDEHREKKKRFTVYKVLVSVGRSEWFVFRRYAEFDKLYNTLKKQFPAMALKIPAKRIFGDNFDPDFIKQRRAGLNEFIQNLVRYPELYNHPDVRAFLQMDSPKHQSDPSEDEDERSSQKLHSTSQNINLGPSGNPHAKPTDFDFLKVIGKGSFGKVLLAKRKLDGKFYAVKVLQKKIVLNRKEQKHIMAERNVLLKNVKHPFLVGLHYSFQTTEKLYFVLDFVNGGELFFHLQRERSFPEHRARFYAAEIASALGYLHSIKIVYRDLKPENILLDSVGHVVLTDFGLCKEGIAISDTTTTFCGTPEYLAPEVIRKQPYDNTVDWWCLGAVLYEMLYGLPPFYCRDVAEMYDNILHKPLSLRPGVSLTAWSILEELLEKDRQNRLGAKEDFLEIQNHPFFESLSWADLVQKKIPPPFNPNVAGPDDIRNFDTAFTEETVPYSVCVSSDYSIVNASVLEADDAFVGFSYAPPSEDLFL
Sequence of AURKA (O14965 whole entry): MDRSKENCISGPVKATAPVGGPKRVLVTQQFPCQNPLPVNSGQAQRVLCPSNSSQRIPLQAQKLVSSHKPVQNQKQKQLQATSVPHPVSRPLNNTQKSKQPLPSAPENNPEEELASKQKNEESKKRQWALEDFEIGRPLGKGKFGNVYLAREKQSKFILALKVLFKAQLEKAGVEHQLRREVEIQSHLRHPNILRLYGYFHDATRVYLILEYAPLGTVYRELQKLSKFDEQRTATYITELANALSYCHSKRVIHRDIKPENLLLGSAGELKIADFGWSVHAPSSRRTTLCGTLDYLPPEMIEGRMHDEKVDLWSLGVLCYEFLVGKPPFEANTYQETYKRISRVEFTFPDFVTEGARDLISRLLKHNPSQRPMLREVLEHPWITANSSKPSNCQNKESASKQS

C[C@H]1CN(c2c(NC(=O)c3ccc(F)c(-c4c(F)cccc4F)n3)cnc3c2CC[C@H]3O)C[C@@H](N)[C@@H]1O.O=P(O)(O)O [INCB053914, N-((R)-4-((3R,4R,5S)-3-amino-4-hydroxy-5-methylpiperidin-1-yl)-7-hydroxy-6,7-dihydro-5H-cyclopenta[b]pyridin-3-yl)-6-(2,6-difluorophenyl)-5-fluoropicolinamide phosphate]
IC50 [1]: 4 nM
IC50 [2]: 27 nM
IC50 (SGK3): > 20 µM
4E-BP1 phosphorylation [3]: a decrease in 4E-BP1 phosphorylation
PIM2 expression levels [3]: an increase in PIM2 expression levels
IC50 (CDK2): > 20 µM
IC50 (NLK): > 20 µM
selectivity against a panel of more than 50 kinases [4]: > 475 fold
GI50 (WSU-NHL; [5]): 1270 nM
Mean (SD) maximum inhibition (WSU-NHL): 76.8 ± 10.5%
GI50 (MV-411; Homo sapiens, MV4-11, read-out: Mean (± SD) GI50): 35.2 ± 41.7 nM
Mean (SD) maximum inhibition (MV-411): 94.3 ± 3.9%
GI50 (MOLP-8; [5]): 13.2 ± 7.7 nM
Mean (SD) maximum inhibition (MOLP-8): 93.3 ± 1.7%
Mean (SD) maximum inhibition (Kasumi-3): 84.3 ± 7.2%
GI50 (Kasumi-3; read-out: Mean (± SD) GI50): 4.9 nM
GI50 (JM-1; Homo sapiens, JM1, read-out: Mean (± SD) GI50): 19.5 ± 15.1 nM
Mean (SD) maximum inhibition (JM-1): 94.3 ± 4.9%
GI50 (JVM2; Homo sapiens, JVM-2, read-out: Mean (± SD) GI50): 290 ± 291 nM
Mean (SD) maximum inhibition (JVM2): 63.0 ± 8.7%
GI50 (OPM-2; [5]): 123 ± 4.9 nM
Mean (SD) maximum inhibition (OPM-2): 87.5 ± 8.0%
GI50 (OCI-LY-10; Homo sapiens, OCI-Ly10, read-out: Mean (± SD) GI50): 41.7 ± 29.4 nM
Mean (SD) maximum inhibition (OCI-LY-10): 96.3 ± 5.5%
GI50 (KARPASS-422): > 3000 nM
GI50 (PL-21): > 3000 nM
GI50 (CCRF-CEM): > 3000 nM
GI50 (RPMI-6666): > 3000 nM
GI50 (Pfeiffer; [5]): 19.5 nM
Mean (SD) maximum inhibition (Pfeiffer): 90.5 ± 6.7%
Mean (SD) maximum inhibition (EOL): 99.5 ± 0.6%
GI50 (EOL; read-out: Mean (± SD) GI50): 18.5 ± 6.1 nM
GI50 (MOLM-13): > 3000 nM
GI50 (L363; Homo sapiens, L-363, read-out: Mean (± SD) GI50): 115 ± 89.4 nM
Mean (SD) maximum inhibition (L363): 90.3 ± 8.1%
GI50 (KG-1; [5]): 17.9 ± 7.1 nM
Mean (SD) maximum inhibition (KG-1): 88.3 ± 3.8%
GI50 (MOLM-16; Homo sapiens, MOLM16, read-out: Mean (± SD) GI50): 3.3 nM
Mean (SD) maximum inhibition (MOLM-16): 99.3 ± 0.3%
IC50 (AURKA): > 20 µM
